What was measured:
[1] = test system: T cells stimulated with ConA, a pan-T cell mitogen; experiment: T cell proliferative responses induced by ConA (specificity control); assay type: cell-based, human; conditions: PBMC from allergic donors
Source text: (§1) Reagents. Glycerinated crude allergen extracts of house dust mites (Dermataphagoides pteronyssinus, Dermataphagoides farinae) and ragweed [Ambrosia trifida (giant), Ambrosia artemisiifolia (short)] were purchased from Hollister-Stier Laboratories (Minneapolis, Minn.). Concanavalin A (ConA) was purchased from Calbiochem (La Jolla, Calif.).
(§2) Cell culture. Human peripheral blood mononuclear cells (PBMC) were purified from blood of allergic donors using Ficoll-Hypaque gradient followed by washes with phosphate buffered saline (PBS). PBMC were cultured in triplicate or duplicate at 0.5-1.0×10^6 cells/well with titrated doses of allergen extracts, in the presence or absence of a known cathepsin S inhibitor, LHVS (morpholinurea-leucine-homo-phenylalanine-vinylsulfonephenyl) (Palmer et al. (1995), J. Med. Chem. 38:3193 and Riese et al. (1996), Immunity 4:357). Serial diluted stock solutions of LHVS were first made in 100% DMSO and then diluted 1:15 in 40% Hydroxypropynyl cyclodextrin (HPCD). Three microliters of LHVS in HPCD was added into PBMC cultures (200 μL/well). After 6 days of culture, 1 μCi/well of ^3H-thymidine (TdR) was added. Eighteen hours later, cells were harvested using a Filtermate Harvester (Packard) and counted for ^3H-TdR incorporation on Topcount (Packard). […]

[2] = test system: HDM allergen-specific CD4 T cells; experiment: Ex vivo human T cell proliferation assay, PBMC of allergic donors cultured with house dust mite extracts (3H-thymidine incorporation); assay type: cell-based; conditions: PBMC from HDM-allergic donors, 7 days culture, titrated doses of LHVS; all four donors tested
Experimental: as §1
(§3) Donors. All allergic donors were prescreened for their specific allergies using RAST tests. The HLA class II haplotypes of these donors were determined using PCR.
as §2, with “After 6 days of culture, 1 μCi/well of ^3H-thymidine (TdR) was added.” left out

[3] = test system: ragweed allergen-specific CD4 T cells; experiment: Ex vivo human T cell proliferation assay, PBMC of allergic donors cultured with ragweed extracts (3H-thymidine incorporation); assay type: cell-based; conditions: PBMC from ragweed-allergic donors, 7 days culture, titrated doses of LHVS; two donors tested
Experimental: as §1, §3
as §2, with “After 6 days of culture, 1 μCi/well of ^3H-thymidine (TdR) was added.” left out

[4] = test system: cathepsin S (degradation of invariant chain Ii); experiment: Monitoring cathepsin S inhibition in human blood: p10Ii fragment of invariant chain in PBMC by Western blot; assay type: cell-based; conditions: PBMC from human blood, incubation for 24 h, SDS-PAGE / Western blot
Experimental: The effect of in vivo administration of cathepsin S inhibitors, in a clinical trial setting, can be monitored by measuring accumulation of an intermediate degradation product of invariant chain (Ii), i.e. the p10Ii fragment, in blood of dosed subjects. After administration of a cathepsin inhibitor for a certain period of time, for example, 0.01 to 50 mg/kg/day to result in a blood concentration of preferably 1 nM-10 μM for 16-30 h, blood is drawn and white blood cells are purified, e.g. either by lysis of red blood cells or by a Ficoll-Hypaque gradient centrifugation. Whole cell lysates of WBC are then made and analyzed by either a Western blot assay or an ELISA assay. For the Western blot assay, cell lysates are first resolved on SDS-PAGE gels. After transferring to nitrocellulose membranes, Ii and its intermediate degradation products, including the p10Ii, can be detected using a mouse mAb against Ii, e.g. Pin1.1, or rabbit polyclonal antibodies or a mouse monoclonal antibody specific for the p10Ii fragment or against the entire p10Ii fragment. For ELISA assay, a pair of antibodies against Ii, including Pin1.1, and a rabbit polyclonal antibody against C-terminal of p10Ii, can be used. The same assay can also be applied to monitor the effect of cathepsin S inhibitors in vivo in animal studies, for example in monkeys, dogs, pigs, rabbits, guinea pigs, and rodents. […]

CC(C)C[C@H](NC(=O)N1CCOCC1)C(=O)N[C@H](/C=C/S(=O)(=O)c1ccccc1)CCc1ccccc1 [LHVS, 4-morpholinecarboxamide, N-[(1S)-3-methyl-1-[[[(1S,2E)-1-(2-phenylethyl)-3-(phenylsulfonyl)-2-propenyl]amino]carbonyl]butyl]-]
T cell proliferative responses induced by ConA [1]: not affected | T cell proliferation induced by house dust mite extracts (Der p, Der f) [2]: strongly inhibited | T cell proliferation induced by ragweed extracts (short and giant) [3]: strongly inhibited | p10Ii fragment (block in the degradation of Ii) [4]: the p10Ii fragment was seen
